How the values were obtained:
[1] = molecular target: T1, Prostaglandin G/H synthase 1 (Homo sapiens, UniProt P23219); assay type: functional
[2] = molecular target: 3',5'-cyclic-AMP phosphodiesterase 4A (Homo sapiens, UniProt P27815); assay type: functional
Histamine H3 receptor = Histamine H3 receptor (Homo sapiens, UniProt Q9Y5N1)
Mu-type opioid receptor = Mu-type opioid receptor (Homo sapiens, UniProt P35372)
[3] = molecular target: T1, Prostaglandin G/H synthase 1; assay type: functional; remark: listed apart in the source
[4] = molecular target: T2, 5-hydroxytryptamine receptor 1A (Homo sapiens, UniProt P08908)
T2 sequence (P08908 whole entry): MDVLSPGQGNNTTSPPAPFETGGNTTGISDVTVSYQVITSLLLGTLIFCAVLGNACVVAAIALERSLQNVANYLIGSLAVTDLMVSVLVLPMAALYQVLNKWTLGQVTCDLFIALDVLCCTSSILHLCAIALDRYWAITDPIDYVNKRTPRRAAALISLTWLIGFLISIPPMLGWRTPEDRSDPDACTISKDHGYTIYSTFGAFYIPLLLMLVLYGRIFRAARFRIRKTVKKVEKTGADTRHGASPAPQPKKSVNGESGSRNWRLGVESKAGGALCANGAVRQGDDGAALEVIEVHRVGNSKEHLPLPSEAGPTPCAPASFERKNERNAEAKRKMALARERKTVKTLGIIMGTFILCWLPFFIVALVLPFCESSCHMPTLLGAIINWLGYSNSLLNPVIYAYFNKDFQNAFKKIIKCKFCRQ

[5] = molecular target: 5-hydroxytryptamine receptor 2B (Homo sapiens, UniProt P41595); assay type: functional, cell-based
[6] = molecular target: Sodium-dependent noradrenaline transporter (Homo sapiens, UniProt P23975)
[7] = molecular target: T3, Amine oxidase [flavin-containing] A (Homo sapiens, UniProt P21397); assay type: functional
T3 sequence (P21397 whole entry): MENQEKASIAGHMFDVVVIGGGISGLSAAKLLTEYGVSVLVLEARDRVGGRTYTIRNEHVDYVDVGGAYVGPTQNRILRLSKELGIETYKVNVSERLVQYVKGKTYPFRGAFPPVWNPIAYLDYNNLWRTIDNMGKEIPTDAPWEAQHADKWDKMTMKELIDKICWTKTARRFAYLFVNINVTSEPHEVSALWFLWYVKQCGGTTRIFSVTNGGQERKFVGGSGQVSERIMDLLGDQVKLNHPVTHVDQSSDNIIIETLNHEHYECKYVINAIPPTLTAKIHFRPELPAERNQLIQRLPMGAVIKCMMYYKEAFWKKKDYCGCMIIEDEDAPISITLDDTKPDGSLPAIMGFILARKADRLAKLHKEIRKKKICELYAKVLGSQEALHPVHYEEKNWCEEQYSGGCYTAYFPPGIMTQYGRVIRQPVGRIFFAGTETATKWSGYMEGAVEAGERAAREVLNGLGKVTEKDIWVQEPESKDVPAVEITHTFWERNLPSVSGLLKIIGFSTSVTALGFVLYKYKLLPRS

Estrogen receptor = molecular target: T4, Estrogen receptor (Homo sapiens, UniProt P03372)
T4 sequence (P03372 whole entry): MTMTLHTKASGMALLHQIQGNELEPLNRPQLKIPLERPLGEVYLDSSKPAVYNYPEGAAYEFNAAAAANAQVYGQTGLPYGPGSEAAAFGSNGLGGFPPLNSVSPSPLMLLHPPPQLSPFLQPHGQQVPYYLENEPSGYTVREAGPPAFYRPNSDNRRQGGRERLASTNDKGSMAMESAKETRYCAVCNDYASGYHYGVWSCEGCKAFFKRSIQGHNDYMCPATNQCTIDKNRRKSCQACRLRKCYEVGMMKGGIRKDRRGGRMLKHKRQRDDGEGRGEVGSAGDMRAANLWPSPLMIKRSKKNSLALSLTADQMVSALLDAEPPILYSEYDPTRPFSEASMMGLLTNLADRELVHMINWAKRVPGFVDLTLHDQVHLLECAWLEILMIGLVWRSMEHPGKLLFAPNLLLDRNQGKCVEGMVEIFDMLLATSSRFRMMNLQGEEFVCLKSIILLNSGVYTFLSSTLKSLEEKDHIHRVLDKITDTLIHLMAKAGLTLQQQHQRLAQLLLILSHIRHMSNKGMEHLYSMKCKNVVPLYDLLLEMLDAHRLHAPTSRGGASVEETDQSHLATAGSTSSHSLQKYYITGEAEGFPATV

[8] = molecular target: T5, Muscarinic acetylcholine receptor M2 (Homo sapiens, UniProt P08172)
T5 sequence (P08172 whole entry): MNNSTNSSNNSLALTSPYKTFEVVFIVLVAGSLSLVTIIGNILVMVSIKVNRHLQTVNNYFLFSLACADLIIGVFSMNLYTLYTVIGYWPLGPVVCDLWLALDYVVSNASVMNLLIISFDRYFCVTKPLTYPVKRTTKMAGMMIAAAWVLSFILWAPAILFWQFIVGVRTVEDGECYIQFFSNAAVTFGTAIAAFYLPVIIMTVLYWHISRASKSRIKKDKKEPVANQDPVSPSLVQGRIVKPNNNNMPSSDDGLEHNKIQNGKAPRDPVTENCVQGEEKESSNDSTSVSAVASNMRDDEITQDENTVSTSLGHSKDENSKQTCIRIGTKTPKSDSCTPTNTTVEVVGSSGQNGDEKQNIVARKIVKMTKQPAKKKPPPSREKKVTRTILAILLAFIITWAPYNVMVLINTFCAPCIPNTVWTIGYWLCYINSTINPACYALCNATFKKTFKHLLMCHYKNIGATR

[9] = molecular target: T6, Alpha-1A adrenergic receptor (Homo sapiens, UniProt P35348); assay type: functional, cell-based
T6 sequence (P35348 whole entry): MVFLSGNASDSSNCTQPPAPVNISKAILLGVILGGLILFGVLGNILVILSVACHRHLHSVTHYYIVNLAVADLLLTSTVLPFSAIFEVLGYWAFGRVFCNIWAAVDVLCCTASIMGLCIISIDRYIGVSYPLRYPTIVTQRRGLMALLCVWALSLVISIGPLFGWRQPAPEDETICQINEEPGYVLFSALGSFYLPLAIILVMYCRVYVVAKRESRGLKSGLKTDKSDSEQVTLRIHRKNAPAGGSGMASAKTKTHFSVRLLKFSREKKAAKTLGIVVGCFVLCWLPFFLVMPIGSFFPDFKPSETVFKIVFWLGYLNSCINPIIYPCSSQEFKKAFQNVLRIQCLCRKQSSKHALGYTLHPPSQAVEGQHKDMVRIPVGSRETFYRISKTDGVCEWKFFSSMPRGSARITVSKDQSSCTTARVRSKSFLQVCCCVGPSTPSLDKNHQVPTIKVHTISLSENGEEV

[10] = molecular target: Sodium-dependent serotonin transporter (Homo sapiens, UniProt P31645)
Note: assay procedure not described here.

Histamine H3 receptor, sequence (Q9Y5N1 whole entry): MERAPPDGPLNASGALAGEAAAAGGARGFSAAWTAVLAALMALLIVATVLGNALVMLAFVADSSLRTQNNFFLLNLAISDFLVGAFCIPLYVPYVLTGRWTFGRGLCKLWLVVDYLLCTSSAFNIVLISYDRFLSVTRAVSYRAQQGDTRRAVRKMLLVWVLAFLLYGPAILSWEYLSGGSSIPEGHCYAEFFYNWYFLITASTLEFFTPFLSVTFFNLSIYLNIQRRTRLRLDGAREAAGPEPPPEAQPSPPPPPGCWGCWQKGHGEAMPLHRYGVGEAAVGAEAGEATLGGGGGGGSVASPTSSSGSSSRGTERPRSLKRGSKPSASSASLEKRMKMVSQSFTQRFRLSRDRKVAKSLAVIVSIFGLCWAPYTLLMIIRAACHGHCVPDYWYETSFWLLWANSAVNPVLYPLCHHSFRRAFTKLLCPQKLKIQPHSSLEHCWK
T1 sequence (P23219 whole entry): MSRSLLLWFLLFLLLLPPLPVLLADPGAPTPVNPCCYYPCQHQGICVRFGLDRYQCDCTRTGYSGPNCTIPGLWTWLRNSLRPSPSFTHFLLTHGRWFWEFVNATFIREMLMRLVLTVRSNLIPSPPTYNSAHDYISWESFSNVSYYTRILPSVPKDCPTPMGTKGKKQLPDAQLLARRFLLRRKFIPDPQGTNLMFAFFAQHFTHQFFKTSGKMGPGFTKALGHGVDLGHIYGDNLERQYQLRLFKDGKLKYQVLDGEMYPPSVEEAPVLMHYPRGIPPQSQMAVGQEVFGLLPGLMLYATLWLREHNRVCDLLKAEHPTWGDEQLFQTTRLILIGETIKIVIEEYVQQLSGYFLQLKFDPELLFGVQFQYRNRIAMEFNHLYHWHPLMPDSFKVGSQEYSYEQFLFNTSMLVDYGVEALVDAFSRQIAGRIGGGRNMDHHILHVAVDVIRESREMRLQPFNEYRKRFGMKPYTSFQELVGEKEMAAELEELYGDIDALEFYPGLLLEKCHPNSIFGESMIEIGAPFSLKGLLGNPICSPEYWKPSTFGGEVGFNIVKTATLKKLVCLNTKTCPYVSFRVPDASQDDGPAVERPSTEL
Mu-type opioid receptor, sequence (P35372 whole entry): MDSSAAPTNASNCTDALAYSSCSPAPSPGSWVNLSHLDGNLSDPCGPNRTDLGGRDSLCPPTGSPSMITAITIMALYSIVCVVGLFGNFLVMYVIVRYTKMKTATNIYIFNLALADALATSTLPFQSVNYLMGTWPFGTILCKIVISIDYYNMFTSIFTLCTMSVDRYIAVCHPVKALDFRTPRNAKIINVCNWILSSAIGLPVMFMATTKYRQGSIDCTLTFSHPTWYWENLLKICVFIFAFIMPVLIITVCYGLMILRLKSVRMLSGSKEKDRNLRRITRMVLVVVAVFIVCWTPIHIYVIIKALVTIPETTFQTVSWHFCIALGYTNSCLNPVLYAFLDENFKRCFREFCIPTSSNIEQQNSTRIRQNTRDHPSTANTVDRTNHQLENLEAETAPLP
Sodium-dependent noradrenaline transporter, sequence (P23975 whole entry): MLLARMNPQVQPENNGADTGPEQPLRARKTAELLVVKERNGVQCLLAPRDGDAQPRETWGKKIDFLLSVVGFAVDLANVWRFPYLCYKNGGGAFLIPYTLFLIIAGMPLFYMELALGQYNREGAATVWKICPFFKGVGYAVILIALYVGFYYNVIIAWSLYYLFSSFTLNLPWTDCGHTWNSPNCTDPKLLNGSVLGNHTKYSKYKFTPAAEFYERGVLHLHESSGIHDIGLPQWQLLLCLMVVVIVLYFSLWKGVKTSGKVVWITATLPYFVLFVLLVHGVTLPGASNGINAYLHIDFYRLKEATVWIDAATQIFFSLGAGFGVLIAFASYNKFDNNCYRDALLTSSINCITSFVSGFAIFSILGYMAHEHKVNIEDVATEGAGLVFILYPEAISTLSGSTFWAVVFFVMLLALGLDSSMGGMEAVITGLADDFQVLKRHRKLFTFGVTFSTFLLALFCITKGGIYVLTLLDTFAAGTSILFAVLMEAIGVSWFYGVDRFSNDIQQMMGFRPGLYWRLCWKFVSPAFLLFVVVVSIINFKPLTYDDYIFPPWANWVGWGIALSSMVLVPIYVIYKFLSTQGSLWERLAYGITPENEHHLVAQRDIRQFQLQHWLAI
3',5'-cyclic-AMP phosphodiesterase 4A, sequence (P27815 whole entry): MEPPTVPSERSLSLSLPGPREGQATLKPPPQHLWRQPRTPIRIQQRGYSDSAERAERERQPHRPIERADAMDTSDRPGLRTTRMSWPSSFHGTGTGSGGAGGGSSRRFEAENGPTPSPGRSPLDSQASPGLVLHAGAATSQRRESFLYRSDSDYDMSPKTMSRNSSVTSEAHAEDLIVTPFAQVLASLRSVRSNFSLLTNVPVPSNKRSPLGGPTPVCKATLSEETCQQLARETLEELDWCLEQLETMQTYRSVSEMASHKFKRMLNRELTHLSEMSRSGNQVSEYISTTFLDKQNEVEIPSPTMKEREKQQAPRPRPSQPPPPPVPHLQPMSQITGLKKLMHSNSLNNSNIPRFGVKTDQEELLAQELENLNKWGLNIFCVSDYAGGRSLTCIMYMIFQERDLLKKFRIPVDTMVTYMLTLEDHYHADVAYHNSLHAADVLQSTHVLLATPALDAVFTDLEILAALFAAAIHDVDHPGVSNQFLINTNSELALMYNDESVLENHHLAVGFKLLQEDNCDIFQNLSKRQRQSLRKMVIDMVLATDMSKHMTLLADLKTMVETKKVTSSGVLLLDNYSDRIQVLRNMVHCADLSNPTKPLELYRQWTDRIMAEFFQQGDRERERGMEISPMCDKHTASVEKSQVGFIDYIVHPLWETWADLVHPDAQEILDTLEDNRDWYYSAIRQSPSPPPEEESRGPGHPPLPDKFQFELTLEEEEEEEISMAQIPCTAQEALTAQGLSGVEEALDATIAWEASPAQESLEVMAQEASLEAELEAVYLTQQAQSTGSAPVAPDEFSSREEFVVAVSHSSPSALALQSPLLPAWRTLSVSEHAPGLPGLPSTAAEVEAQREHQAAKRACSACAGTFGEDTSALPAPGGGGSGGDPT
5-hydroxytryptamine receptor 2B, sequence (P41595 whole entry): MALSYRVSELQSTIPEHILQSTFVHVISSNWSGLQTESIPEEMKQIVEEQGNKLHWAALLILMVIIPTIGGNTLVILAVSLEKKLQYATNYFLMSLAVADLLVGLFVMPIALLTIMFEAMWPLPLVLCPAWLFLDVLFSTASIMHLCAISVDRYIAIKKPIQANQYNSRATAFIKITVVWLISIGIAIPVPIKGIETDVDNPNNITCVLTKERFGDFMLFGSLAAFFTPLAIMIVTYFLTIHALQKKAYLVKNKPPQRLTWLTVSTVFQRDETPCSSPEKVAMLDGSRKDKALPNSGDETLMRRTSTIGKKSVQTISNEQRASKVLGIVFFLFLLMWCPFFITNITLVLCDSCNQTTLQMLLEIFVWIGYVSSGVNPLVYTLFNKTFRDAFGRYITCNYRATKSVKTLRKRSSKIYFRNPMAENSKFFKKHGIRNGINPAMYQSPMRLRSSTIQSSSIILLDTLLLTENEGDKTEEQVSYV
Sodium-dependent serotonin transporter, sequence (P31645 whole entry): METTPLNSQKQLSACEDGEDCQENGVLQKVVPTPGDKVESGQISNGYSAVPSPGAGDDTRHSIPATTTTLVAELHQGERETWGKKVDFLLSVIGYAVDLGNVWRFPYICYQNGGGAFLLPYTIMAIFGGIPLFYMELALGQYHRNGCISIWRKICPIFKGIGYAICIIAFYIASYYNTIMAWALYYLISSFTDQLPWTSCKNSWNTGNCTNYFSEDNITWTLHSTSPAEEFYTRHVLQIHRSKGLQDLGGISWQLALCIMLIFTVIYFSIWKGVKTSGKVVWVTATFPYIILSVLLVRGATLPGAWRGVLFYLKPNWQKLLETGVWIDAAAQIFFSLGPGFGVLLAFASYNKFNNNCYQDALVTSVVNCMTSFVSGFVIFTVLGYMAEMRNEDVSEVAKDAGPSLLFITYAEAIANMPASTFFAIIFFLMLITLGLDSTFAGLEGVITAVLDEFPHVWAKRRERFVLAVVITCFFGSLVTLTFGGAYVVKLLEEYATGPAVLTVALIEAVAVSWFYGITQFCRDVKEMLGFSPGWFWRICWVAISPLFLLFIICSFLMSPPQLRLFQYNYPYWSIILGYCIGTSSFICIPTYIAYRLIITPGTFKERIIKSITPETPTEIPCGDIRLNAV

| Compound | AC50 [1] | AC50 [2] | AC50 (Histamine H3 receptor) | AC50 (Mu-type opioid receptor) | AC50 [3] | AC50 [4] | AC50 [5] | AC50 [6] | AC50 [7] | AC50 (Estrogen receptor) | AC50 [8] | AC50 [9] | AC50 [10] |
| --- | --- | --- | --- | --- | --- | --- | --- | --- | --- | --- | --- | --- | --- |
| CO[C@@]1(NC(=O)CSCC#N)C(=O)N2C(C(=O)O)=C(CSc3nnnn3C)CS[C@@H]21 [CEFMETAZOLE] | > 30 µM | > 30 µM | > 30 µM | > 30 µM | > 30 µM | > 30 µM | > 30 µM | > 30 µM | > 30 µM | > 30 µM | > 30 µM |  |  |
| O=C(O)CC(O)(CC(=O)O)C(=O)O [CITRIC ACID] | > 30 µM | > 30 µM | > 30 µM | > 30 µM | > 30 µM | > 30 µM | > 30 µM | > 30 µM | > 30 µM | > 30 µM | > 30 µM | > 30 µM |  |
| CC[C@H]1OC(=O)[C@H](C)[C@@H](O[C@H]2C[C@@](C)(OC)[C@@H](O)[C@H](C)O2)[C@H](C)[C@@H](O[C@@H]2O[C@H](C)C[C@H](N(C)C)[C@H]2O)[C@](C)(OC)C[C@@H](C)C(=O)[C@H](C)[C@@H](O)[C@]1(C)O [CLARITHROMYCIN] | > 30 µM | > 30 µM | > 30 µM | > 30 µM | > 30 µM | > 30 µM | > 30 µM | > 30 µM | > 30 µM | > 30 µM | > 30 µM | > 30 µM |  |
| Oc1c(I)cc(Cl)c2cccnc12 [CLIOQUINOL] | > 30 µM | > 30 µM | > 30 µM | > 30 µM | > 30 µM | > 30 µM | > 30 µM | 2.79 µM | > 30 µM |  | > 30 µM |  | > 30 µM |
| C[C@H]1O[C@@H](O[C@H]2[C@@H](O)C[C@H](O[C@H]3[C@@H](O)C[C@H](O[C@H]4CC[C@@]5(C)[C@H](CC[C@@H]6[C@@H]5CC[C@]5(C)[C@@H](C7=CC(=O)OC7)CC[C@]65O)C4)O[C@@H]3C)O[C@@H]2C)C[C@H](O)[C@@H]1O [DIGITOXIN] | > 30 µM | > 30 µM | > 30 µM | > 30 µM | > 30 µM | > 30 µM | > 30 µM | > 30 µM | > 30 µM | > 30 µM | > 30 µM | > 30 µM |  |
| OC(CCCN1CCCCC1)(c1ccccc1)c1ccccc1 [DIPHENIDOL] | > 30 µM | > 30 µM | > 30 µM | 25.2 µM | > 30 µM | 6.87 µM | > 30 µM | > 30 µM | > 30 µM | > 30 µM | 0.944 µM | > 30 µM |  |
| O=C(CCCN1CC=C(n2c(=O)[nH]c3ccccc32)CC1)c1ccc(F)cc1 [DROPERIDOL] | > 30 µM | > 30 µM | > 30 µM | > 30 µM | > 30 µM | > 30 µM | > 30 µM | > 30 µM | > 30 µM | > 30 µM | > 30 µM | > 30 µM |  |
| CCn1cc(C(=O)O)c(=O)c2cc(F)c(N3CCNCC3)nc21 [ENOXACIN] | > 30 µM | > 30 µM | > 30 µM | > 30 µM | > 30 µM | > 30 µM | > 30 µM | > 30 µM | > 30 µM | > 30 µM | > 30 µM | > 30 µM |  |
| CNC(=O)Oc1ccc2c(c1)[C@]1(C)CCN(C)[C@@H]1N2C [PHYSOSTIGMINE] | 4.3 µM | > 30 µM | > 30 µM | 5.74 µM | > 10 µM | > 30 µM | > 30 µM | > 30 µM | > 30 µM | > 30 µM | > 30 µM | > 30 µM |  |
| COCCCOc1ccnc(C[S+]([O-])c2nc3ccccc3[nH]2)c1C (centres undefined) [RABEPRAZOLE] | 25.4 µM | > 30 µM | > 30 µM | 7.93 µM | 0.71 µM | 12.8 µM | > 30 µM | 17.9 µM | > 30 µM |  | > 30 µM | > 30 µM |  |
| O=C(Oc1ccccc1C(=O)O)c1ccccc1O [SALSALATE] | > 30 µM | > 30 µM | > 30 µM | > 30 µM | > 30 µM | > 30 µM | > 30 µM | > 30 µM | > 30 µM | > 30 µM | > 30 µM | > 30 µM |  |
| O=C(CCCN1CCC2(CC1)C(=O)NCN2c1ccccc1)c1ccc(F)cc1 [SPIPERONE] |  |  |  |  |  |  |  |  |  |  |  | 0.081 µM |  |
| c1ccc2[nH]c(-c3cscn3)nc2c1 [THIABENDAZOLE] | > 30 µM | > 30 µM | > 30 µM | > 30 µM | > 30 µM | > 30 µM | > 30 µM | > 30 µM | > 30 µM | > 30 µM | > 30 µM | > 30 µM |  |
| C[C@@H]1C[C@H]2[C@@H]3CCC4=CC(=O)C=C[C@]4(C)C3=CC[C@]2(C)[C@H]1C(=O)CN1CCN(c2cc(N3CCCC3)nc(N3CCCC3)n2)CC1 [TIRILAZAD] | 3.05 µM | 19.4 µM | > 30 µM | > 30 µM | 3.8 µM | > 30 µM | > 30 µM | > 30 µM | > 30 µM | > 30 µM | 0.432 µM | > 30 µM |  |

From ChEMBL document CHEMBL5291721, “A preclinical secondary pharmacology resource illuminates target-adverse drug reaction associations of marketed drugs” (Nat Commun, 2023)
